Data as given in US7973181B2, “Hydroxamic acid derivatives as inhibitors of HDAC enzymatic activity” (Chroma Therapeutics Ltd., priority 2005, dated 2011).

Experiments:
Hela = assay: Cell inhibition assay (SRB cell viability), Hela; type: cell-based; conditions: Homo sapiens, HeLa, 72 h, Hela cells
Protocol: (§1) The corresponding cancer cell lines (Hela, U937 and HUT) growing in log phase were harvested and seeded at 1000 cells/well (200 ul final volume) into 96-well tissue culture plates. Following 24 h of cell growth cells were treated with compounds (final concentration of 20 uM). Plates were then re-incubated for a further 72 h before a sulphorhodamine B (SRB) cell viability assay was conducted according to Skehan 1990 J Natl Canc Inst 82, 1107-1112.
(§2) Data were expressed as a percentage inhibition of the control, measured in the absence of inhibitor, as follows: — % inhibition=100−((S^i/S^o)×100) where S^i is the signal in the presence of inhibitor and S^o is the signal in the presence of DMSO.
(§3) IC50 values were determined by non-linear regression analysis, after fitting the results of eight data points to the equation for sigmoidal dose response with variable slope (% activity against log concentration of compound), using Graphpad Prism software.
(§4) Results of testing the compounds of the examples in this assay are given in the third- fifth columns of Table 1.

HUT = assay: Cell inhibition assay (SRB cell viability), HUT; type: cell-based; conditions: 72 h, HUT cells
Protocol: as §1, §2, §3, §4

U937 = assay: Cell inhibition assay (SRB cell viability), U937; type: cell-based; conditions: Homo sapiens, U-937, 72 h, U937 cells
Protocol: as §1, §2, §3, §4

[1] = biological target: histone deacetylase activity (HeLa nuclear extract); assay: HDAC fluorescent activity assay (Biomol Fluor de Lys), HeLa nuclear extract; type: biochemical; conditions: Fluor de Lys substrate
Protocol: The ability of compounds to inhibit histone deacetylase activities was measured using the commercially available HDAC fluorescent activity assay from Biomol. In brief, the Fluor de Lys™ substrate, a lysine with an epsilon-amino acetylation, is incubated with the source of histone deacetylase activity (HeLa nuclear extract) in the presence or absence of inhibitor.
Deacetylation of the substrate sensitises the substrate to Fluor de Lys™ developer, which generates a fluorophore. Thus, incubation of the substrate with a source of HDAC activity results in an increase in signal that is diminished in the presence of an HDAC inhibitor.
Data are expressed as a percentage of the control, measured in the absence of inhibitor, with background signal being subtracted from all samples, as follows: — % activity=((S^i−B)/(S^o−B))×100 where S^i is the signal in the presence of substrate, enzyme and inhibitor, S^o is the signal in the presence of substrate, enzyme and the vehicle in which the inhibitor is dissolved, and B is the background signal measured in the absence of enzyme.
as §3
Histone deacetylase activity from crude nuclear extract derived from HeLa cells was used for screening. The preparation, purchased from 4C (Seneffe, Belgium), was prepared from HeLa cells harvested whilst in exponential growth phase. The nuclear extract is prepared according to Dignam JD1983 Nucl. Acid. Res. 11, 1475-1489, snap frozen in liquid nitrogen and stored at −80° C. The final buffer composition was 20 mM Hepes, 100 mM KCl, 0.2 mM EDTA, 0.5 mM DTT, 0.2 mM PMSF and 20% (v/v) glycerol.
Results of testing the compounds of the examples in this assay are given in the second column of Table 1 below.

IC50 (Hela) [nM] | IC50 (U937) [nM] | IC50 [1] [nM] | Compound | IC50 (HUT) [nM]
330 to 3300 | 330 to 3300 | 101 to 1000 | O=C(NO)c1cc2ccc(CNCc3ccc(OCCC[C@H](NC4CCCCC4)C(=O)OC4CCCC4)cc3)cc2s1 [Example 22, (S)-2-Cyclohexylamino-S-(4-{[(2-hydroxycarbamoyl-benzo[b]thiophen-6-ylmethyl)-amino]-methyl}-phenoxy)-pentanoic acid cyclopentyl ester] | 330 to 3300
330 to 3300 | 330 to 3300 | 101 to 1000 | N[C@@H](CCOc1ccc(NC(=O)CCCCCCC(=O)NO)cc1)C(=O)OC1CCCC1 [Example 7, (S)-2-Amino-4-[4-(7-hydroxycarbamoyl-heptanoylamino)-phenoxy]-butyric acid cyclopentyl ester] | 330 to 3300
> 3300 | 330 to 3300 | 101 to 1000 | CC(=O)N[C@@H](Cc1ccc(NC(=O)CCCCCCC(=O)NO)cc1)C(=O)OC1CCCC1 [Example 1, (S)-2-Acetylamino-3-[4-(7-hydroxycarbamoyl-heptanoylamino)-phenyl]-propionic acid cyclopentyl ester] | 330 to 3300
330 to 3300 | < 330 | < 100 | N[C@@H](Cc1ccc(Oc2ccc(CNCc3ccc4cc(C(=O)NO)sc4c3)cc2)cc1)C(=O)OC1CCCC1 [Example 26, (S)-2-Amino-3-[4-(4-{[(2-hydroxycarbamoyl-benzo[b]thiophen-6-ylmethyl)-amino]-methyl}-phenoxy)-phenyl]-propionic acid cyclopentyl ester] | < 330
> 3300 | > 3300 | > 1000 | CC(=O)N[C@H](Cc1ccc(NC(=O)CCCCCCC(=O)NO)cc1)C(=O)O [Example 4, (R)-2-Acetylamino-3-[4(7-hydroxycarbamoyl-heptanoylamino)-phenyl]-propionic acid] | > 3300
< 330 | < 330 | < 100 | N[C@H](CCOc1ccc(CNCc2ccc3cc(C(=O)NO)sc3c2)cc1)C(=O)OC1CCCC1 [Example 13, (R)-2-Amino-4-(4-{[(2-hydroxycarbamoyl-benzo[b]thiophen-6-ylmethyl)-amino]-methyl}phenoxy)-butyric acid cyclopentyl ester] | < 330
